Common to all, as to test: Anti-proliferative activity, cell-titre luminescent viability assay
Format in all cases: cell-based

In experiment [1] the test system is PC3 prostate cancer cells. The note with it: 72 hours exposure. Here is the method:
(§1) The ability of compounds 1001-1018 and 1037-1039 to inhibit the proliferation of cancer cells representative of neuroblastoma, melanoma, prostate cancer, colorectal cancer, non-small cell lung carcinoma, and triple negative breast cancer was assessed (Table 1).
(§2) Briefly, a pre-determined number of cells as calculated from cell growth assays for each of the cell lines employed were seeded into their respective culture medium (using ATCC culture parameters—http://www.atcc.org) and cultured for 24 hours at 37° C. and 5% CO2 in 96-well culture plates. Once attached, each cell line was then exposed to increasing concentrations of each respective analogue (0.03, 0.3, 3 and 30 μM for compounds 1001-13 and 1015-18; 0.1, 0.3, 1, 3, 10 and 30 μM for compounds 1014 and 1037-39), cultured for a further 72 hours and exposed to cell-titre luminescent reagent (100 μL/well) for a further 30 minutes) to measure cell viability. Luminescence was captured using an EnVision multilabel reader and the data for each analogue concentration compared against no treatment control. For compounds 1001-13 and 1015-18, semi-log plots of Percent of Control versus concentration were prepared and IC50 determined using linear regression analysis. For compounds 1014 and 1037-39, cell viability was normalized to control (vehicle alone) and dose-response curves, and half maximal effective concentration (EC50) values were determined using Graph Pad Prism 6 (nonlinear regression sigmoidal dose-response variable slope).

Experiment [2] relates to CaCo2 colorectal cancer cells. Particulars: Homo sapiens, Caco-2, 72 hours exposure. The method, then:
as §1, §2

For experiment [3], the system named is A549 lung (NSLC) cancer cells. The note with it: Homo sapiens, 72 hours exposure. The method, then: as §1, §2
For experiment [4], the system named is SK-N-SH neuroblastoma cells. The note with it: Homo sapiens, 72 hours exposure. Here is the method: as §1, §2
In experiment [5] the test system is DU145 prostate cancer cells. Particulars: Homo sapiens, DU-145, 72 hours exposure. The method, then:
as §1, §2

For the next experiment, the system named is SK-Mel-28 melanoma cells. The note with it: Homo sapiens, 72 hours exposure. The method, then:
as §1, §2

For experiment [6], the system named is MDA-MB-231 breast cancer cells. The note with it: Homo sapiens, 72 hours exposure. Here is the method:
as §1, §2

Here are results for 15 compounds from patent US20170158636A1, “FUNCTIONALISED AND SUBSTITUTED CARBAZOLES AS ANTI-CANCER AGENTS” (Novogen Ltd., priority 2014, published 2017).

Molecules are shown by their SMILES. pIC50: −log10 of the molar value.

Broadly, the pIC50 is the IC50 on a negative log10 scale, so that one unit is a factor of ten. As for `CN(C)CCCn1c2ccccc2c2cc(C(=O)N3CCN(CCc4ccc(F)cc4)CC3)ccc21` [Compound 1002, (9-(3-(dimethylamino)propyl)-9H-carbazol-3-yl)(4-(4-fluorophenethyl)piperazin-1-yl)methanone], the pIC50 in experiment [1] is 5.21; in experiment [2], 5.43; in experiment [3], 5.47; in experiment [4], 5.47; in experiment [5], 5.43; in the experiment with SK-Mel-28 melanoma cells, 5.43. Besides, the pIC50 in experiment [6] was 5.35.

`COc1ccc(CCN2CCN(C(=O)c3ccc4c(c3)c3ccccc3n4CCCN(C)C)CC2)cc1` [Compound 1003, (9-(3-(dimethylamino)propyl)-9H-carbazol-3-yl)(4-(4-methoxyphenethyl)piperazin-1-yl)methanone]: the pIC50 in experiment [1] was 5.51; in experiment [2], 5.43; in experiment [3], 5.47; in experiment [4] it was 5.51; in experiment [5] it was 5.44; with SK-Mel-28 melanoma cells it was 5.49. The compound also gave a pIC50 in experiment [6] of 5.37.

For `CN(C)CCCn1c2ccccc2c2cc(C(=O)N3CCN(CCc4cccc(F)c4)CC3)ccc21` [Compound 1005, (9-(3-(dimethylamino)propyl)-9H-carbazol-3-yl)(4-(3-fluorophenethyl)piperazin-1-yl)methanone], the pIC50 in experiment [1] was 5.48; in experiment [2], 5.42; in experiment [3] it was 5.46; in experiment [4] it was 5.48; in experiment [5], 5.49; with SK-Mel-28 melanoma cells, 5.46. The compound also had a pIC50 in experiment [6] of 5.39.

Take `COc1cccc(CCN2CCN(C(=O)c3ccc4c(c3)c3ccccc3n4CCCN(C)C)CC2)c1` [Compound 1006, (9-(3-(dimethylamino)propyl)-9H-carbazol-3-yl)(4-(3-methoxyphenethyl)piperazin-1-yl)methanone]: the pIC50 in experiment [1] is 5.28; in experiment [2] it was 5.39; in experiment [3], 5.46; in experiment [4], 5.47; in experiment [5], 5.36; with SK-Mel-28 melanoma cells, 5.46. Also, the pIC50 in experiment [6] is 5.52.

On to `CCN(CC)CCCn1c2ccccc2c2cc(C(=O)N3CCN(CCc4ccc(OC)cc4)CC3)ccc21` [Compound 1008, (9-(3-(diethylamino)propyl)-9H-carbazol-3-yl)(4-(4-methoxyphenethyl)piperazin-1-yl)methanone], for which the negative logarithm of the IC50 (pIC50) is 5.32 in experiment [1]; 5.17 in experiment [2]; 5.42 in experiment [3]; 5.48 in experiment [4]; 5.40 in experiment [5]; 5.60 in the experiment with SK-Mel-28 melanoma cells. Further, in experiment [6], the pIC50 was 5.46.

In the case of `CCN(CC)CCCn1c2ccccc2c2cc(C(=O)N3CCN(CCc4ccc5c(c4)OCO5)CC3)ccc21` [Compound 1009, (4-(2-(benzo[d][1,3]dioxol-5-yl)ethyl)piperazin-1-yl)(9-(3-(diethylamino)propyl)-9H-carbazol-3-yl)methanone], the pIC50 was 5.34 in experiment [1]; 5.30 in experiment [2]; 5.40 in experiment [3]; 5.32 in experiment [4]; 4.92 in experiment [5]; 5.39 in the experiment on SK-Mel-28 melanoma cells. The pIC50 in experiment [6] was 5.35.

For the compound `CCN(CC)CCCn1c2ccccc2c2cc(C(=O)N3CCN(CCc4cccc(F)c4)CC3)ccc21` [Compound 1010, (9-(3-(diethylamino)propyl)-9H-carbazol-3-yl)(4-(3-fluorophenethyl)piperazin-1-yl)methanone], the pIC50 in experiment [1] was 5.43; in experiment [2], 5.39; in experiment [3], 5.44; in experiment [4], 5.48; in experiment [5] it was 5.43; with SK-Mel-28 melanoma cells, 5.41. In experiment [6], this compound gave a pIC50 of 5.38.

Consider `CCN(CC)CCCn1c2ccccc2c2cc(C(=O)N3CCN(CCc4cccc(OC)c4)CC3)ccc21` [Compound 1011, (9-(3-(diethylamino)propyl)-9H-carbazol-3-yl)(4-(3-methoxyphenethyl)piperazin-1-yl)methanone], for which the pIC50 was 5.26 in experiment [1]; 5.40 in experiment [2]; 5.42 in experiment [3]; 5.38 in experiment [4]; 5.35 in experiment [5]; 5.47 in the experiment on SK-Mel-28 melanoma cells. In experiment [6], this compound gave a pIC50 of 5.60.

Turning to `CCN(CC)CCCn1c2ccccc2c2cc(C(=O)N3CCN(CCc4ccccc4)CC3)ccc21` [Compound 1012, (9-(3-(diethylamino)propyl)-9H-carbazol-3-yl)(4-phenethylpiperazin-1-yl)methanone], the pIC50 in experiment [1] was 5.39; in experiment [2], 5.55; in experiment [3] it was 5.49; in experiment [4], 5.54; in experiment [5], 5.46; with SK-Mel-28 melanoma cells, 5.55. For the same compound, the pIC50 in experiment [6] is 5.51.

Take `COc1ccc(CCN2CCN(C(=O)c3ccc4c(c3)c3ccccc3n4CCCN3CCN(C)CC3)CC2)cc1` [Compound 1014, (4-(4-methoxyphenethyl)piperazin-1-yl)(9-(3-(4-methylpiperazin-1-yl)propyl)-9H-carbazol-3-yl)methanone]: the pIC50 in experiment [1] is 5.42; in experiment [2] it was 4.86; in experiment [3] it was 4.51; in experiment [4], 5.06; in experiment [5], 4.40; in the experiment with SK-Mel-28 melanoma cells it was 5.29. Moreover, the negative logarithm of the IC50 (pIC50) in experiment [6] was 4.99.

`CN1CCN(CCCn2c3ccccc3c3cc(C(=O)N4CCN(CCc5ccc6c(c5)OCO6)CC4)ccc32)CC1` [Compound 1015, (4-(2-(benzo[d][1,3]dioxol-5-yl)ethyl)piperazin-1-yl)(9-(3-(4-methylpiperazin-1-yl)propyl)-9H-carbazol-3-yl)methanone]: the pIC50 was 5.28 in experiment [1]; 5.26 in experiment [2]; 5.40 in experiment [3]; 5.29 in experiment [4]; 4.81 in experiment [5]; 5.47 in the experiment with SK-Mel-28 melanoma cells. This compound also showed a pIC50 in experiment [6] of 5.36.

Consider `COc1cccc(CCN2CCN(C(=O)c3ccc4c(c3)c3ccccc3n4CCCN3CCN(C)CC3)CC2)c1` [Compound 1017, (4-(3-methoxyphenethyl)piperazin-1-yl)(9-(3-(4-methylpiperazin-1-yl)propyl)-9H-carbazol-3-yl)methanone], for which the pIC50 is 5.28 in experiment [1]; 5.34 in experiment [2]; 5.44 in experiment [3]; 5.33 in experiment [4]; 5.18 in experiment [5]; 5.40 with SK-Mel-28 melanoma cells. The same compound showed a pIC50 in experiment [6] of 5.43.

`O=C(c1ccc2[nH]c3ccccc3c2c1)N1CCN(CCc2ccc(F)cc2)CC1` [Compound 1037, (9H-carbazol-3-yl)(4-(4-fluorophenethyl)piperazin-1-yl)methanone]: the pIC50 is below 4.52 in experiment [1]; below 4.52 in experiment [2]; 4.79 in experiment [3]; below 4.52 in experiment [4]; below 4.52 in experiment [5]; below 4.52 in the experiment with SK-Mel-28 melanoma cells. Further, the negative-log IC50 (pIC50) in experiment [6] was below 4.52.

Consider `O=C(c1ccc2c(c1)c1ccccc1n2CCCCl)N1CCN(CCc2ccc(F)cc2)CC1` [Compound 1038, (9-(3-chloropropyl)-9H-carbazol-3-yl)(4-(4-fluorophenethyl)piperazin-1-yl)methanone], for which the pIC50 (in experiment [1]; in experiment [2]; in experiment [3]; in experiment [4]; in experiment [5]; with SK-Mel-28 melanoma cells) was below 4.52 each time. This compound also had a pIC50 in experiment [6] below 4.52.

With `O=C(c1ccc2c(c1)c1ccccc1n2CCc1ccc(F)cc1)N1CCN(CCc2ccc(F)cc2)CC1` [Compound 1039, (9-(4-fluorophenethyl)-9H-carbazol-3-yl)(4-(4-fluorophenethyl)piperazin-1-yl)methanone], the pIC50 (in experiment [1]; in experiment [2]; in experiment [3]; in experiment [4]; in experiment [5]; in the experiment on SK-Mel-28 melanoma cells) was below 4.52 each time. Also, the negative-log IC50 (pIC50) in experiment [6] is below 4.52.
